From PubChem BioAssay AID248 (DTP/NCI, 2004)
Inconclusive results and toxic doses are left out. Cut-off read from the data, not from the text of the source: active = T/C of 150% or more; inactive = T/C below 125%.

System: L1210 leukemia ip in BDF1 mice, survival T/C
Test: NCI In Vivo Anticancer Drug Screen. Data for tumor model L1210 Leukemia (intraperitoneal) in B6D2F1 (BDF1) mice
Details: endpoint: mean survival time, higher = longer survival
In short: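 Mice bearing the transplanted tumor received compound or vehicle. Survival of the treated group was divided by that of the vehicle-treated control group to give the ratio.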

[1] = dose: 100.0 mg/kg/injection, schedule: Q01DX009 (ip), vehicle: other
[2] = dose: 200.0 mg/kg/injection, schedule: Q01DX009 (ip), vehicle: other
[3] = dose: 400.0 mg/kg/injection, schedule: Q01DX009 (ip), vehicle: other
[4] = dose: 100.0 mg/kg/injection, schedule: Q04DX003 (ip), vehicle: Klucel (hydroxypropylcellulose) (HPC)
[5] = dose: 200.0 mg/kg/injection, schedule: Q04DX003 (ip), vehicle: Klucel (hydroxypropylcellulose) (HPC)
[6] = dose: 400.0 mg/kg/injection, schedule: Q04DX003 (ip), vehicle: Klucel (hydroxypropylcellulose) (HPC)
[7] = dose: 75.0 mg/kg/injection, schedule: Q04DX003 (ip), vehicle: saline
[8] = dose: 200.0 mg/kg/injection, schedule: Q01DX001 (ip), vehicle: other
[9] = dose: 400.0 mg/kg/injection, schedule: Q01DX001 (ip), vehicle: other
[10] = dose: 100.0 mg/kg/injection, schedule: Q01DX009 (ip), vehicle: saline with Tween-80
[11] = dose: 100.0 mg/kg/injection, schedule: Q04DX003 (ip), vehicle: saline with Tween-80
[12] = dose: 200.0 mg/kg/injection, schedule: Q01DX009 (ip), vehicle: saline with Tween-80
[13] = dose: 200.0 mg/kg/injection, schedule: Q04DX003 (ip), vehicle: saline with Tween-80
[14] = dose: 400.0 mg/kg/injection, schedule: Q01DX009 (ip), vehicle: saline with Tween-80
[15] = dose: 400.0 mg/kg/injection, schedule: Q04DX003 (ip), vehicle: saline with Tween-80
[16] = dose: 100.0 mg/kg/injection, schedule: Q01DX001 (ip), vehicle: saline
[17] = dose: 200.0 mg/kg/injection, schedule: Q01DX001 (ip), vehicle: saline
[18] = dose: 400.0 mg/kg/injection, schedule: Q01DX001 (ip), vehicle: saline
[19] = dose: 100.0 mg/kg/injection, schedule: Q04DX002 (ip), vehicle: saline
[20] = dose: 200.0 mg/kg/injection, schedule: Q04DX002 (ip), vehicle: saline
[21] = dose: 400.0 mg/kg/injection, schedule: Q04DX002 (ip), vehicle: saline
[22] = dose: 100.0 mg/kg/injection, schedule: Q04DX002 (ip), vehicle: Klucel (hydroxypropylcellulose) (HPC)
[23] = dose: 200.0 mg/kg/injection, schedule: Q04DX002 (ip), vehicle: Klucel (hydroxypropylcellulose) (HPC)
[24] = dose: 400.0 mg/kg/injection, schedule: Q04DX002 (ip), vehicle: Klucel (hydroxypropylcellulose) (HPC)

Measured: T/C

CC(=O)N(CC(=O)O)Cc1ccccc1
inactive: [1] 100 % of control | dose: 100.0 mg/kg/injection, schedule: Q04DX003 (ip), vehicle: other 95 % of control | [2] 105 % of control | dose: 200.0 mg/kg/injection, schedule: Q04DX003 (ip), vehicle: other 101 % of control | [3] 105 % of control | dose: 400.0 mg/kg/injection, schedule: Q04DX003 (ip), vehicle: other 106 % of control

c1ccc(NC2C(=C(c3ccccc3)c3ccccc3)N3CCC2CC3)cc1 (stereo not given)
inactive: [4] 95 % of control | [5] 94 % of control | [6] 95 % of control

CN1CCN(c2nc3ccccc3n3nnnc23)CC1
inactive: dose: 37.5 mg/kg/injection, schedule: Q04DX003 (ip), vehicle: saline 104 % of control | [7] 107 % of control

O=c1ccc2c(Cl)cc(CN(CCO)CCO)cc2[nH]1
inactive: dose: 75.0 mg/kg/injection, schedule: Q01DX001 (ip), vehicle: saline 102 % of control | [7] 97 % of control | dose: 150.0 mg/kg/injection, schedule: Q01DX001 (ip), vehicle: saline 102 % of control | dose: 150.0 mg/kg/injection, schedule: Q04DX003 (ip), vehicle: saline 92 % of control | dose: 300.0 mg/kg/injection, schedule: Q01DX001 (ip), vehicle: saline 108 % of control

C=CCNC(=S)Nc1cccc(OC(=O)NC(C)(C)C)c1
inactive: dose: 100.0 mg/kg/injection, schedule: Q01DX009 (ip), vehicle: Klucel (hydroxypropylcellulose) (HPC) 90 % of control | dose: 200.0 mg/kg/injection, schedule: Q01DX009 (ip), vehicle: Klucel (hydroxypropylcellulose) (HPC) 90 % of control | dose: 400.0 mg/kg/injection, schedule: Q01DX009 (ip), vehicle: Klucel (hydroxypropylcellulose) (HPC) 92 % of control

C#CCOC(=O)c1ccc(C(=O)OCC#C)cc1
inactive: dose: 100.0 mg/kg/injection, schedule: Q01DX009 (ip), vehicle: saline sonified 106 % of control | [4] 100 % of control | dose: 200.0 mg/kg/injection, schedule: Q01DX009 (ip), vehicle: saline sonified 96 % of control | [5] 106 % of control | [6] 90 % of control

CCOc1cccc(NNc2ccccc2OCC)c1
inactive: dose: 44.0 mg/kg/injection, schedule: Q01DX001 (ip), vehicle: other 106 % of control | dose: 66.0 mg/kg/injection, schedule: Q01DX001 (ip), vehicle: other 95 % of control | dose: 150.0 mg/kg/injection, schedule: Q01DX001 (ip), vehicle: other 92 % of control | [8] 97 % of control | [9] 97 % of control

CCN(CC)Cc1cc(C(=N)N)ccc1O
inactive: dose: 56.0 mg/kg/injection, schedule: Q01DX Z (ip), vehicle: carboxymethylcellulose (CMC) 101 % of control | dose: 83.0 mg/kg/injection, schedule: Q01DX Z (ip), vehicle: carboxymethylcellulose (CMC) 95 % of control | dose: 125.0 mg/kg/injection, schedule: Q01DX Z (ip), vehicle: carboxymethylcellulose (CMC) 98 % of control | dose: 187.5 mg/kg/injection, schedule: Q01DX Z (ip), vehicle: carboxymethylcellulose (CMC) 102 % of control

COC(=O)C1(C)CSCCC1=O (stereo not given)
inactive: [1] 94 % of control | [2] 94 % of control | [3] 99 % of control

CC(C)(C1c2ccccc2C(=NO)c2ccccc21)[N+](=O)[O-] (stereo not given)
inactive: [10] 98 % of control | [11] 95 % of control | [12] 94 % of control | [13] 95 % of control | [14] 94 % of control | [15] 98 % of control

CCC1(c2ccccc2)C2C(=O)NC(=O)C1C(=O)NC2=O (stereo not given)
inactive: [16] 98 % of control | [17] 95 % of control | [18] 101 % of control

C/C=C/C=C/COC(=O)C=C(C)C
inactive: [19] 107 % of control | [20] 101 % of control | [21] 107 % of control

CC(C)C1=CCC2C(=C1)CCC1C(C)(C(N)=O)CCCC21C (stereo not given)
inactive: [10] 102 % of control | [12] 92 % of control | [14] 89 % of control

O=C(OCC(O)C(O)C(O)C(SCc1ccccc1)SCc1ccccc1)c1ccc([N+](=O)[O-])cc1 (stereo not given)
inactive: [16] 93 % of control | [17] 94 % of control | [18] 94 % of control

O=c1ccnc(SCc2ccccc2)[nH]1
inactive: dose: 100.0 mg/kg/injection, schedule: Q01DX Z (ip), vehicle: methylcellulose (MC) 95 % of control | dose: 200.0 mg/kg/injection, schedule: Q01DX Z (ip), vehicle: methylcellulose (MC) 97 % of control

OC(Cc1ccccc1)(c1ccc(Cl)cc1)c1ccc(Cl)cc1
inactive: dose: 100.0 mg/kg/injection, schedule: Q01DX001 (ip), vehicle: Klucel (hydroxypropylcellulose) (HPC) 107 % of control | dose: 200.0 mg/kg/injection, schedule: Q01DX001 (ip), vehicle: Klucel (hydroxypropylcellulose) (HPC) 95 % of control | dose: 400.0 mg/kg/injection, schedule: Q01DX001 (ip), vehicle: Klucel (hydroxypropylcellulose) (HPC) 101 % of control

CCOC(=O)c1ccc(NCC(C)(C)N(C)C)cc1
inactive: dose: 12.0 mg/kg/injection, schedule: Q01DX009 (ip), vehicle: saline 93 % of control | dose: 12.0 mg/kg/injection, schedule: Q04DX003 (ip), vehicle: saline 93 % of control | dose: 25.0 mg/kg/injection, schedule: Q01DX009 (ip), vehicle: saline 89 % of control | dose: 25.0 mg/kg/injection, schedule: Q04DX003 (ip), vehicle: saline 98 % of control | dose: 50.0 mg/kg/injection, schedule: Q01DX009 (ip), vehicle: saline 90 % of control | dose: 50.0 mg/kg/injection, schedule: Q04DX003 (ip), vehicle: saline 95 % of control

Cc1ccccc1SCC(N)=O
inactive: [4] 91 % of control | [5] 98 % of control | [6] 107 % of control

Nc1nc2c(nnn2C2CC(CO)C(O)C2O)c(=O)[nH]1 (stereo not given)
inactive: dose: 100.0 mg/kg/injection, schedule: Q01DX001 (ip), vehicle: other 104 % of control | [8] 105 % of control | [9] 109 % of control

Brc1c(N=Cc2ccccc2)ccc2ccccc12
inactive: [10] 94 % of control | [11] 102 % of control | [12] 87 % of control | [13] 102 % of control | [14] 89 % of control | [15] 89 % of control

CCOC(=O)C(CC(OCC)OCC)C(=O)OCC
inactive: [10] 95 % of control | [11] 101 % of control | [12] 96 % of control | [13] 108 % of control | [14] 96 % of control | [15] 100 % of control

Clc1cc(Cl)c(OCC#CI)cc1Cl
inactive: dose: 50.0 mg/kg/injection, schedule: Q01DX001 (ip), vehicle: saline 104 % of control | [16] 98 % of control | [17] 93 % of control | [18] 89 % of control

Clc1nc2ccccc2n2nnnc12
inactive: dose: 15.0 mg/kg/injection, schedule: Q04DX003 (ip), vehicle: saline 101 % of control | dose: 30.0 mg/kg/injection, schedule: Q04DX003 (ip), vehicle: saline 98 % of control | dose: 60.0 mg/kg/injection, schedule: Q04DX003 (ip), vehicle: saline 86 % of control

CCCCCCCCCCCCCCCCN1CCN(CCCCCCCCCCCCCCCC)CC1
inactive: [22] 108 % of control | [23] 101 % of control | [24] 101 % of control

NCCCCC(N)C(=O)NC1C(CO)OC(n2cnc3c(N)ncnc32)C1O (stereo not given)
inactive: [16] 101 % of control | [17] 105 % of control | [18] 101 % of control

CC(C)CCCC(C)C1CCC2C3CC=C4CC(OCCCl)CCC4(C)C3CCC12C (stereo not given)
inactive: [11] 96 % of control | [13] 96 % of control | [15] 93 % of control

O=[N+]([O-])c1cccc(/C=C/C=C/c2ccc(Cl)c(Cl)c2)c1
inactive: [22] 100 % of control | [23] 93 % of control | [24] 96 % of control

O=C(COc1ccc(Cl)cc1)NNc1ccccc1
inactive: [19] 100 % of control | [20] 96 % of control | [21] 114 % of control
